Test results: patent publication US6919331B2, “Substituted 2-methyl-benzimidazole respiratory syncytial virus antiviral agents” (Bristol-Myers Squibb Company, priority 2001, dated 2005)

System: respiratory syncytial virus Long strain
Assay: cell protection assay (RSV-induced cytopathic effects, MTT staining)
Format: cell-based
Method: For cell protection assays, HEp-2 (ATCC CCL 23) cells were seeded in 96 well microtiter plates at 1.5×10^4 cells/100 μL/well in DMEM (Dulbecco's Modified Eagle's Medium) supplemented with penicillin, streptomycin, glutamine, and 10% fetal bovine serum. After overnight incubation at 37° C., the culture medium was removed and cells were infected with respiratory syncytial virus Long strain at 5000 plaque forming units (PFU)/mL in a 100 μL volume of medium containing 2% fetal bovine serum. The compounds, 100 μL at appropriate dilution, were added to the cells one hour post infection. After incubation for 4 days at 37° C., the plates were stained with MTT solution (3-[4,5-dimethlythiazol-2-yl]-2,5-diphenyltetrazolium bromide) and incubated for 4 hours at 37° C. The media was aspirated from the cells and 100 μL/well of acidified isopropanol (per liter: 900 mL isopropanol, 100 mL Triton X100, and 4 mL conc. HCl) was added. Plates were incubated for 15 minutes at room temperature with shaking, and an optical density (OD 540) reading at 540 nanometer (nm) was obtained. The optical density reading is proportional to the number of viable cells. The increase in the number of viable cells reflects the protective, antiviral activity of the compound. […]

NC(=O)c1ncn([C@@H]2O[C@H](CO)[C@@H](O)[C@H]2O)n1 [Ribavirin]
cell protection (at 2.5 μg/mL (corresponding to 10.2 μM), HEp-2 cells, RSV Long strain): 100% | EC50 (human respiratory syncytial virus, HEp-2 cells infected with RSV Long strain, compound added one hour post infection, 4 days, MTT, read-out: EC50 (concentration that produces 50% cell protection)): 3000 nM
